From PubChem BioAssay AID1918999 (Molecular Pharmacology Branch, DTP, NCI, 2023)

System: 556581-035-R-J1-PDC complex spheroid growth
Assay: Anticancer human tumor 556581-035-R-J1-PDC patient-derived ovarian carcinoma cell line growth inhibition [AhR]
Settings: for IC50: curve of first compound; for viability, T/C: stronger effect = lower value
Outline: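 Complex tumor spheroids co-cultured with HUVEC and human MSC stroma; AhR antagonists tested in combination with standard-of-care and investigational agents. Top concentration at or near clinical Cmax (else 10 microM), half-log dilutions; growth expressed as percent test/control.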

[1] = second compound 0.1 µM, first compound 0.0316 µM
[2] = second compound 0.1 µM, first compound 0.1 µM
[3] = second compound 0.1 µM, first compound 0.316 µM
[4] = second compound 0.1 µM, first compound 1 µM
[5] = second compound 0.316 µM, first compound 0.0316 µM
[6] = second compound 0.316 µM, first compound 0.1 µM
[7] = second compound 0.316 µM, first compound 0.316 µM
[8] = second compound 0.316 µM, first compound 1 µM
[9] = second compound 1 µM, first compound 0.0316 µM
[10] = second compound 1 µM, first compound 0.1 µM
[11] = second compound 1 µM, first compound 0.316 µM
[12] = second compound 1 µM, first compound 1 µM
[13] = second compound 3.16 µM, first compound 0.0316 µM
[14] = second compound 3.16 µM, first compound 0.1 µM
[15] = second compound 3.16 µM, first compound 0.316 µM
[16] = second compound 3.16 µM, first compound 1 µM
[17] = second compound 10 µM, first compound 0.0316 µM
[18] = second compound 10 µM, first compound 0.1 µM
[19] = second compound 10 µM, first compound 0.316 µM
[20] = second compound 10 µM, first compound 1 µM
[21] = second compound 0.1 µM, first compound 3.16 µM
[22] = second compound 0.1 µM, first compound 10 µM
[23] = second compound 0.316 µM, first compound 3.16 µM
[24] = second compound 0.316 µM, first compound 10 µM
[25] = second compound 1 µM, first compound 3.16 µM
[26] = second compound 1 µM, first compound 10 µM
[27] = second compound 3.16 µM, first compound 3.16 µM
[28] = second compound 3.16 µM, first compound 10 µM
[29] = second compound 10 µM, first compound 3.16 µM
[30] = second compound 10 µM, first compound 10 µM
[31] = second compound 0.1 µM, first compound 0.00949 µM
[32] = second compound 0.1 µM, first compound 0.03 µM
[33] = second compound 0.1 µM, first compound 0.0949 µM
[34] = second compound 0.1 µM, first compound 0.3 µM
[35] = second compound 0.316 µM, first compound 0.00949 µM
[36] = second compound 0.316 µM, first compound 0.03 µM
[37] = second compound 0.316 µM, first compound 0.0949 µM
[38] = second compound 0.316 µM, first compound 0.3 µM
[39] = second compound 1 µM, first compound 0.00949 µM
[40] = second compound 1 µM, first compound 0.03 µM
[41] = second compound 1 µM, first compound 0.0949 µM
[42] = second compound 1 µM, first compound 0.3 µM
[43] = second compound 3.16 µM, first compound 0.00949 µM
[44] = second compound 3.16 µM, first compound 0.03 µM
[45] = second compound 3.16 µM, first compound 0.0949 µM
[46] = second compound 3.16 µM, first compound 0.3 µM
[47] = second compound 10 µM, first compound 0.00949 µM
[48] = second compound 10 µM, first compound 0.03 µM
[49] = second compound 10 µM, first compound 0.0949 µM
[50] = second compound 10 µM, first compound 0.3 µM
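Wherever viability, T/C is given: compound exposure lasted 7 days; 100% = DMSO vehicle control growth.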

CC1COCCN1c1cc(-c2ccnn2C)c2ccnc(-c3ccn[nH]3)c2n1 (stereo not given) + Cc1cncc(-c2nc(NCCc3c[nH]c4ccccc34)c3ncn(C(C)C)c3n2)c1
IC50 (second compound 0.1 µM): 0.621 µM | IC50 (second compound 0.316 µM): 0.518 µM | IC50 (second compound 1 µM): 0.796 µM | IC50 (second compound 3.16 µM): 0.76 µM | IC50 (second compound 10 µM): 0.877 µM | viability, T/C (second compound 0.1 µM, first compound 0.00316 µM): 99.4% | viability, T/C (second compound 0.1 µM, first compound 0.01 µM): 96.1% | viability, T/C [1]: 89.8% | viability, T/C [2]: 82.2% | viability, T/C [3]: 62.8% | viability, T/C [4]: 40.5% | viability, T/C (second compound 0.316 µM, first compound 0.00316 µM): 98.2% | viability, T/C (second compound 0.316 µM, first compound 0.01 µM): 104% | viability, T/C [5]: 93.2% | viability, T/C [6]: 83% | viability, T/C [7]: 55.6% | viability, T/C [8]: 41.9% | viability, T/C (second compound 1 µM, first compound 0.00316 µM): 100% | viability, T/C (second compound 1 µM, first compound 0.01 µM): 102% | viability, T/C [9]: 101% | viability, T/C [10]: 83.8% | viability, T/C [11]: 57.4% | viability, T/C [12]: 48% | viability, T/C (second compound 3.16 µM, first compound 0.00316 µM): 101% | viability, T/C (second compound 3.16 µM, first compound 0.01 µM): 95.1% | viability, T/C [13]: 88.6% | viability, T/C [14]: 75.7% | viability, T/C [15]: 62.4% | viability, T/C [16]: 46.2% | viability, T/C (second compound 10 µM, first compound 0.00316 µM): 77.6% | viability, T/C (second compound 10 µM, first compound 0.01 µM): 71.9% | viability, T/C [17]: 71.4% | viability, T/C [18]: 64.3% | viability, T/C [19]: 57.7% | viability, T/C [20]: 49%

CC1COCCN1c1cc(C2(S(C)(=N)=O)CC2)nc(-c2ccnc3[nH]ccc23)n1 (stereo not given) + Cc1cncc(-c2nc(NCCc3c[nH]c4ccccc34)c3ncn(C(C)C)c3n2)c1
IC50 (second compound 0.1 µM): > 10 µM | IC50 (second compound 0.316 µM): > 10 µM | IC50 (second compound 1 µM): > 10 µM | IC50 (second compound 3.16 µM): > 10 µM | IC50 (second compound 10 µM): > 10 µM | viability, T/C [1]: 103% | viability, T/C [2]: 104% | viability, T/C [3]: 92.2% | viability, T/C [4]: 93.3% | viability, T/C [21]: 73.5% | viability, T/C [22]: 67.4% | viability, T/C [5]: 99% | viability, T/C [6]: 97.9% | viability, T/C [7]: 99.4% | viability, T/C [8]: 95.4% | viability, T/C [23]: 82.5% | viability, T/C [24]: 68.9% | viability, T/C [9]: 101% | viability, T/C [10]: 106% | viability, T/C [11]: 102% | viability, T/C [12]: 94.7% | viability, T/C [25]: 85% | viability, T/C [26]: 67.3% | viability, T/C [13]: 111% | viability, T/C [14]: 103% | viability, T/C [15]: 92.2% | viability, T/C [16]: 99.2% | viability, T/C [27]: 74.2% | viability, T/C [28]: 78.2% | viability, T/C [17]: 80.4% | viability, T/C [18]: 90.1% | viability, T/C [19]: 80.7% | viability, T/C [20]: 90.9% | viability, T/C [29]: 79.5% | viability, T/C [30]: 63.8%

COc1ccc([C@@H](O)c2cc(-c3ncnc4cc(N5CCOCC5)ccc34)c(F)cc2Cl)nn1 + Cc1cncc(-c2nc(NCCc3c[nH]c4ccccc34)c3ncn(C(C)C)c3n2)c1
IC50 (second compound 0.1 µM): 3.12 µM | IC50 (second compound 0.316 µM): 7.28 µM | IC50 (second compound 1 µM): 4.2 µM | IC50 (second compound 3.16 µM): 6.93 µM | IC50 (second compound 10 µM): 9.85 µM | viability, T/C [1]: 113% | viability, T/C [2]: 114% | viability, T/C [3]: 108% | viability, T/C [4]: 72.2% | viability, T/C [21]: 51.4% | viability, T/C [22]: 45.6% | viability, T/C [5]: 110% | viability, T/C [6]: 105% | viability, T/C [7]: 102% | viability, T/C [8]: 77.8% | viability, T/C [23]: 60.8% | viability, T/C [24]: 45.8% | viability, T/C [9]: 111% | viability, T/C [10]: 112% | viability, T/C [11]: 116% | viability, T/C [12]: 87.9% | viability, T/C [25]: 53.8% | viability, T/C [26]: 42.5% | viability, T/C [13]: 103% | viability, T/C [14]: 113% | viability, T/C [15]: 88.5% | viability, T/C [16]: 82.6% | viability, T/C [27]: 54.2% | viability, T/C [28]: 47.8% | viability, T/C [17]: 82.2% | viability, T/C [18]: 85.7% | viability, T/C [19]: 89.1% | viability, T/C [20]: 74.8% | viability, T/C [29]: 61.5% | viability, T/C [30]: 49.5%

Nc1ncn(C2CC(O)C(CO)S2)c(=O)n1 (stereo not given) + Cc1cncc(-c2nc(NCCc3c[nH]c4ccccc34)c3ncn(C(C)C)c3n2)c1
IC50 (second compound 0.1 µM): > 0.3 µM | IC50 (second compound 0.316 µM): > 0.3 µM | IC50 (second compound 1 µM): > 0.3 µM | IC50 (second compound 3.16 µM): > 0.3 µM | IC50 (second compound 10 µM): > 0.3 µM | viability, T/C (second compound 0.1 µM, first compound 0.000949 µM): 99.3% | viability, T/C (second compound 0.1 µM, first compound 0.003 µM): 102% | viability, T/C [31]: 88.9% | viability, T/C [32]: 93.8% | viability, T/C [33]: 82% | viability, T/C [34]: 67.3% | viability, T/C (second compound 0.316 µM, first compound 0.000949 µM): 113% | viability, T/C (second compound 0.316 µM, first compound 0.003 µM): 109% | viability, T/C [35]: 111% | viability, T/C [36]: 93.2% | viability, T/C [37]: 81% | viability, T/C [38]: 68% | viability, T/C (second compound 1 µM, first compound 0.000949 µM): 116% | viability, T/C (second compound 1 µM, first compound 0.003 µM): 109% | viability, T/C [39]: 99.5% | viability, T/C [40]: 106% | viability, T/C [41]: 85.7% | viability, T/C [42]: 80.4% | viability, T/C (second compound 3.16 µM, first compound 0.000949 µM): 87.7% | viability, T/C (second compound 3.16 µM, first compound 0.003 µM): 84.8% | viability, T/C [43]: 95.8% | viability, T/C [44]: 94.3% | viability, T/C [45]: 79.5% | viability, T/C [46]: 72.9% | viability, T/C (second compound 10 µM, first compound 0.000949 µM): 84.7% | viability, T/C (second compound 10 µM, first compound 0.003 µM): 86.7% | viability, T/C [47]: 91.6% | viability, T/C [48]: 87.3% | viability, T/C [49]: 79.4% | viability, T/C [50]: 72.6%

O=C(C=Cn1cnc(-c2cc(C(F)(F)F)cc(C(F)(F)F)c2)n1)NNc1cnccn1 + Cc1cncc(-c2nc(NCCc3c[nH]c4ccccc34)c3ncn(C(C)C)c3n2)c1
IC50 (second compound 0.1 µM): > 3 µM | IC50 (second compound 0.316 µM): > 3 µM | IC50 (second compound 1 µM): 1.86 µM | IC50 (second compound 3.16 µM): > 3 µM | IC50 (second compound 10 µM): > 3 µM | viability, T/C [31]: 94.2% | viability, T/C [32]: 99.9% | viability, T/C [33]: 95.5% | viability, T/C [34]: 85.9% | viability, T/C (second compound 0.1 µM, first compound 0.949 µM): 70.8% | viability, T/C (second compound 0.1 µM, first compound 3 µM): 56.3% | viability, T/C [35]: 85.5% | viability, T/C [36]: 96.2% | viability, T/C [37]: 74.8% | viability, T/C [38]: 73.8% | viability, T/C (second compound 0.316 µM, first compound 0.949 µM): 62.6% | viability, T/C (second compound 0.316 µM, first compound 3 µM): 50.1% | viability, T/C [39]: 93.9% | viability, T/C [40]: 94.8% | viability, T/C [41]: 87.5% | viability, T/C [42]: 78.2% | viability, T/C (second compound 1 µM, first compound 0.949 µM): 65.4% | viability, T/C (second compound 1 µM, first compound 3 µM): 39.4% | viability, T/C [43]: 92.8% | viability, T/C [44]: 97.1% | viability, T/C [45]: 95.9% | viability, T/C [46]: 74.8% | viability, T/C (second compound 3.16 µM, first compound 0.949 µM): 57.3% | viability, T/C (second compound 3.16 µM, first compound 3 µM): 50.4% | viability, T/C [47]: 81.6% | viability, T/C [48]: 84.6% | viability, T/C [49]: 73.9% | viability, T/C [50]: 72.7% | viability, T/C (second compound 10 µM, first compound 0.949 µM): 64.8% | viability, T/C (second compound 10 µM, first compound 3 µM): 68.9%
